Values joined by “and” are separate entries in the source; they are usually repeats but may differ in a detail not shown here. Identical values can stand only once.
What was measured:
Format in all cases: in vivo, human
[1] = tested on: patients with moderate to severe migraine headaches of duration of 24 to 96 hrs; experiment: Pilot study: IV valproate vs IM DHE with metoclopramide for abortive treatment of acute migraine headache (Example 1); details: for % Headache Relief: 5 patients per group; for Headache Severity / Nausea/vomiting / Phonophobia / Photophobia: individual patient; for Headache Severity: grade 0-3; for Nausea/vomiting / Phonophobia / Photophobia: presence
From the text: This Example describes the results of a pilot study using intravenous valproate for abortive treatment of acute migraine headache. • Methods. Patients with established diagnosis of migraine with and without aura were considered for randomization to intravenous (“IV”) valproate (“VPA”) or intramuscular (“IM”) dihydroergotamine (“DHE”) with metoclopramide, also referred to herein as […]®, for patients with moderate to severe migraine headaches of duration of 24 to 96 hrs. Patients received intravenous infusion of 500 mgs of valproate over 30 mins or 1 mg DHE with 10 mgs metoclopramide IM. Headache severity, presence of nausea, phonophobia and photophobia were rated at baseline, 1 hr, 2 hrs, and 4 hrs. Table I and II. There were 5 patients in each group. • Results. Of the 5 patients receiving valproate, 4 of the 5 had response of their headaches from moderate or severe to none or mild at 1 hr, 2 hrs, and 4 hrs. Of the 5 patients receiving DHE, 3 of the 5 patients had headache response to moderate or severe to mild or none at 1 hr, 2 hrs, and 4 hrs. Table III. […] In the DHE group, 2 of 5 had nausea at baseline, and 1 had nausea at 1 hr, 2 hrs, and 4 hrs. Table IVa. […] In the DHE group, 3 of 5 had relief of photophobia at 1 hr, 4 of 5 had relief at 2 hrs and 4 hrs. […] In the DHE group, 2 of 5 had relief of phonophobia at 1 hr, and 3 of 5 had relief of phonophobia at 2 hrs and 4 hrs. Table IVb. • Conclusions. Intravenous valproate is an alternative therapy for abortive treatment of moderate to severe prolonged acute migraine headache. Anti-convulsant mechanisms may be relevant to treatment of headache symptomatology.

[2] = tested on: patients with moderate to severe migraine headaches of duration of 24 to 96 hrs; experiment: as above; details: individual patient, grade 0-3; 24-h; sodium
[3] = tested on: patients with moderate to severe headaches of 24–72 hours duration; experiment: Expanded study: IV VPA vs DHE with metoclopramide IM, acute migraine headache (Example 2); details: for % Headache Relief: 10 patients per group; for Headache Severity / Nausea/vomiting / Phonophobia / Photophobia: individual patient, sodium; for Headache Severity: grade 0-3; for Nausea/vomiting / Phonophobia / Photophobia: presence
Description: This Example describes an expanded study and analysis of the effectiveness of intravenous VPA for the treatment of acute migraine headache of significant duration. Patient data from the pilot study described in Example 1 has been incorporated and further analyzed in addition to new patient data. • Design. […] Patients alternately received intravenous VPA 500 mgs over 15–30 minutes, or dihydroergotamine (“DHE”) 1 mg with metoclopramide 10 mgs intramuscularly (“IM”). Age ranged from 22 to 73 years. Patients rated severity of headache, presence or absence of nausea, photophobia, and phonophobia at 1, 2 and 4 hrs. Table V and Table VI. • Results. In the 10 patients receiving DHE and metoclopramide, 40% had headache relief at 1 hour, 50% at 2 hours, 60% at 4 hours. The percent with nausea at 0, 1, 2, and 4 hours was 60%, 10%, 20%, 30% respectively, photophobia at 0, 1, 2, and 4 hours 100%, 50%, 50%, 40% respectively, phonophobia at 0, 1, 2, and 4 hours 80%, 30%, 50%, 40% respectively. In the 10 patients receiving i.v. VPA, 60% had headache relief at 1 hour, 70% at 2 hours, 70% at 4 hours, the percent with nausea at 0, 1, 2, and 4 hours was 70%, 30% 30%, 20% respectively, photophobia at 0, 1, 2, and 4 hours was 100%, 40%, 40%, 30% respectively, and phonophobia at 0, 1, 2, and 4 hours was 90%, 40%, 40%, 30% respectively. Table VII. • Conclusions. The results of the present study indicate that intravenous VPA is at least as efficacious as DHE for abortive treatment of acute migraine. Accordingly, intravenous VPA offers a treatment option for migraine headache patients who have recently used a triptan or DHE without the risk of drug-drug interaction or cardiovascular complications.

CCCC(CCC)C(=O)[O-].[Na+] [Depacon, valproate sodium]
90%: % experiencing Phonophobia ([3]; 0-h (baseline))
0 (3×) and 1 and 2: Headache Severity ([1]; 4-h, sodium)
70%: % experiencing Nausea ([3]; 0-h (baseline)) | % Headache Relief ([3]; 2-h) | % Headache Relief ([3]; 4-h)
80%: % experiencing Nausea ([1]; 0-h (baseline)) | % experiencing phonphobia ([1]; 0-h (baseline)) | % Headache Relief ([1]; 4-h)
1 (6×) and 2 (3×) and 0: Headache Severity ([3]; 2-h)
60%: % Headache Relief ([1]; 1-h) | % Headache Relief ([3]; 1-h) | % experiencing Phonophobia ([3]; 24-h)
1 (4×) and 0 (2×) and 2 (2×) and 3 (2×): Headache Severity ([3]; 1-h)
40%: % Headache Relief ([1]; 24-h) | % experiencing Nausea ([1]; 24-h) | % experiencing Photophobia ([1]; 24-h) | % experiencing phonphobia ([1]; 24-h) | % experiencing Phonophobia ([3]; 1-h) | % experiencing Photophobia ([3]; 1-h) | % experiencing Phonophobia ([3]; 2-h) | % experiencing Photophobia ([3]; 2-h) | % experiencing Nausea ([3]; 24-h)
50%: % Headache Relief ([3]; 24-h)
30%: % experiencing Nausea ([3]; 1-h) | % experiencing Nausea ([3]; 2-h) | % experiencing Phonophobia ([3]; 4-h) | % experiencing Photophobia ([3]; 4-h)
1 (4×) and 0: Headache Severity ([1]; 2-h, sodium)
0 (3×) and 1 (4×) and 2 (2×) and 3: Headache Severity ([3]; 4-h)
4 of the 5: patients with response of headache from moderate or severe to none or mild ([1]; of 5 patients, 1 hr) | patients with response of headache from moderate or severe to none or mild ([1]; of 5 patients, 2 hrs) | patients with response of headache from moderate or severe to none or mild ([1]; of 5 patients, 4 hrs)
3 (3×) and 2 (2×): Headache Severity ([1]; 0-h (baseline), Depacon IV 500 mg or DHE 1 mg + Reglan 10 mg, sodium)
0%: % experiencing Nausea ([1]; 4-h) | % experiencing Photophobia ([1]; 4-h) | % experiencing phonphobia ([1]; 4-h)
100%: % experiencing Photophobia ([1]; 0-h (baseline)) | % Headache Relief ([1]; 2-h) | % experiencing Photophobia ([3]; 0-h (baseline))
0: Nausea/vomiting ([1]; 0-h (baseline), sodium) | Phonophobia ([1]; 0-h (baseline), sodium) | Nausea/vomiting ([1]; 1-h, sodium) | Phonophobia ([1]; 1-h, sodium) | Photophobia ([1]; 1-h, sodium) | Nausea/vomiting ([1]; 2-h, sodium) | Phonophobia ([1]; 2-h, sodium) | Photophobia ([1]; 2-h, sodium) | Nausea/vomiting ([1]; 4-h) | Phonophobia ([1]; 4-h) | Photophobia ([1]; 4-h) | Nausea/vomiting ([1]; 24-h, sodium) | Phonophobia ([1]; 24-h, sodium) | Photophobia ([1]; 24-h, sodium) | Nausea/vomiting ([3]; 0-h (baseline)) | Phonophobia ([3]; 0-h (baseline)) | Nausea/vomiting ([3]; 1-h) | Phonophobia ([3]; 1-h) | Photophobia ([3]; 1-h) | Nausea/vomiting ([3]; 2-h) | Phonophobia ([3]; 2-h) | Photophobia ([3]; 2-h) | Nausea/vomiting ([3]; 4-h) | Phonophobia ([3]; 4-h) | Photophobia ([3]; 4-h) | Nausea/vomiting ([3]; 24-h) | Phonophobia ([3]; 24-h) | Photophobia ([3]; 24-h)
20%: % experiencing Nausea ([1]; 1-h) | % experiencing Photophobia ([1]; 1-h) | % experiencing phonphobia ([1]; 1-h) | % experiencing Nausea ([1]; 2-h) | % experiencing Photophobia ([1]; 2-h) | % experiencing phonphobia ([1]; 2-h) | % experiencing Nausea ([3]; 4-h)
all had relief of nausea: patients who had nausea ([1]; of 5 patients, 4 hrs)
1: patients who had nausea ([1]; of 5 patients, 1 hr) | patients who had nausea ([1]; of 5 patients, 2 hrs)
1 (2×) and 0 (2×) and 2: Headache Severity ([1]; 1-h, sodium)
1 (3×) and 2 (4×) and 3 and 0 (2×): Headache Severity ([3]; 24-h)
all had relief: patients who had relief of phonophobia ([1]; of 5 patients, 4 hrs) | patients who had relief of photophobia ([1]; of 5 patients, 4 hrs)
3 (5×) and 2 (5×): Headache Severity ([3]; 0-h (baseline), Depacon IV 500 mg or DHE 1 mg IM + Reglan 10 mg IM)
4 of 5: patients who had relief of phonophobia ([1]; of 5 patients, 1 hr) | patients who had relief of photophobia ([1]; of 5 patients, 1 hr) | patients who had relief of phonophobia ([1]; of 5 patients, 2 hrs) | patients who had relief of photophobia ([1]; of 5 patients, 2 hrs) | patients who had nausea ([1]; of 5 patients, baseline)
all had photophobia: patients who had photophobia ([1]; of 5 patients, baseline)
1 and 2 (2×) and 3 and 0: Headache Severity [2]

Reference: patent US7163689B2, “Intravenous valproate for acute treatment of migraine headache” (priority 1999, dated 2007)
